What was measured:
Assay in all cases: relative viability (nuclei count vs DMSO), 5 days (fraction); higher = more cells survive
[1] = system: 201T
In short: (§1)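 Each reported value is a median over duplicate plates. It expresses relative viability: treated-well nuclei count divided by vehicle-well nuclei count. Lung cancer cell lines in 1536-well plates were dosed by pin tool a day after seeding, alone with one drug or with a fixed anchor-drug dose plus five library-drug doses (not always all listed) in √10 steps, and nuclei were counted after 5 days.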

[2] = system: COR-L23
In short: as §1

[3] = system: EPLC-272H
In short: as §1

[4] = system: H3255
In short: as §1

[5] = system: HCC-15
In short: as §1

[6] = system: LOU-NH91
In short: as §1

[7] = system: NCI-H1563
In short: as §1

[8] = system: NCI-H1650
In short: as §1

[9] = system: NCI-H1734
In short: as §1

[10] = system: NCI-H1793
In short: as §1

[11] = system: NCI-H2023
In short: as §1

[12] = system: NCI-H2170
In short: as §1

[13] = system: NCI-H2347
In short: as §1

[14] = system: NCI-H2405
In short: as §1

[15] = system: NCI-H3122
In short: as §1

[16] = system: NCI-H322M
In short: as §1

[17] = system: NCI-H441
In short: as §1

[18] = system: NCI-H520
In short: as §1

[19] = system: NCI-H647
In short: as §1

[20] = system: PC-14
In short: as §1

[21] = system: UMC-11
In short: as §1

O=c1cc(-c2cccc3c2Sc2ccccc2S3)oc(N2CCOCC2)c1 + CS(=O)(=O)N1CCN(Cc2cc3nc(-c4cccc5[nH]ncc45)nc(N4CCOCC4)c3s2)CC1 [Pictilisib] (partner 1 µM)
relative viability ([1]; first compound 0.08 µM): 0.652 | relative viability ([1]; first compound 0.253 µM): 0.718 | relative viability ([1]; first compound 0.8 µM): 0.51 | relative viability ([1]; first compound 2.53 µM): 0.616 | relative viability ([1]; first compound 8 µM): 0.742 | relative viability ([2]; first compound 0.08 µM): 0.92 | relative viability ([2]; first compound 0.253 µM): 1.36 | relative viability ([2]; first compound 0.8 µM): 0.934 | relative viability ([2]; first compound 2.53 µM): 0.705 | relative viability ([2]; first compound 8 µM): 1.06 | relative viability ([3]; first compound 0.08 µM): 0.321 | relative viability ([3]; first compound 0.253 µM): 0.334 | relative viability ([3]; first compound 0.8 µM): 0.29 | relative viability ([3]; first compound 2.53 µM): 0.289 | relative viability ([3]; first compound 8 µM): 0.327 | relative viability ([4]; first compound 0.08 µM): 0.408 | relative viability ([4]; first compound 0.253 µM): 0.463 | relative viability ([4]; first compound 0.8 µM): 0.427 | relative viability ([4]; first compound 2.53 µM): 0.402 | relative viability ([4]; first compound 8 µM): 0.513 | relative viability ([5]; first compound 0.08 µM): 0.732 | relative viability ([5]; first compound 0.253 µM): 0.858 | relative viability ([5]; first compound 0.8 µM): 0.797 | relative viability ([5]; first compound 2.53 µM): 0.674 | relative viability ([5]; first compound 8 µM): 0.793 | relative viability ([6]; first compound 0.08 µM): 0.519 | relative viability ([6]; first compound 0.253 µM): 0.542 | relative viability ([6]; first compound 0.8 µM): 0.438 | relative viability ([6]; first compound 2.53 µM): 0.504 | relative viability ([6]; first compound 8 µM): 0.531 | relative viability ([7]; first compound 0.08 µM): 0.649 | relative viability ([7]; first compound 0.253 µM): 0.64 | relative viability ([7]; first compound 0.8 µM): 0.633 | relative viability ([7]; first compound 2.53 µM): 0.738 | relative viability ([7]; first compound 8 µM): 0.661 | relative viability ([8]; first compound 0.08 µM): 0.509 | relative viability ([8]; first compound 0.253 µM): 0.53 | relative viability ([8]; first compound 0.8 µM): 0.507 | relative viability ([8]; first compound 2.53 µM): 0.522 | relative viability ([8]; first compound 8 µM): 0.582 | relative viability ([9]; first compound 0.08 µM): 0.443 | relative viability ([9]; first compound 0.253 µM): 0.564 | relative viability ([9]; first compound 0.8 µM): 0.465 | relative viability ([9]; first compound 2.53 µM): 0.351 | relative viability ([9]; first compound 8 µM): 0.578 | relative viability ([10]; first compound 0.08 µM): 0.185 | relative viability ([10]; first compound 0.253 µM): 0.301 | relative viability ([10]; first compound 0.8 µM): 0.303 | relative viability ([10]; first compound 2.53 µM): 0.303 | relative viability ([10]; first compound 8 µM): 0.334 | relative viability ([11]; first compound 0.08 µM): 0.213 | relative viability ([11]; first compound 0.253 µM): 0.294 | relative viability ([11]; first compound 0.8 µM): 0.244 | relative viability ([11]; first compound 2.53 µM): 0.218 | relative viability ([11]; first compound 8 µM): 0.218 | relative viability ([12]; first compound 0.08 µM): 0.31 | relative viability ([12]; first compound 0.253 µM): 0.342 | relative viability ([12]; first compound 0.8 µM): 0.312 | relative viability ([12]; first compound 2.53 µM): 0.287 | relative viability ([12]; first compound 8 µM): 0.275 | relative viability ([13]; first compound 0.08 µM): 0.633 | relative viability ([13]; first compound 0.253 µM): 0.952 | relative viability ([13]; first compound 0.8 µM): 0.567 | relative viability ([13]; first compound 2.53 µM): 0.733 | relative viability ([13]; first compound 8 µM): 0.476 | relative viability ([14]; first compound 0.08 µM): 0.454 | relative viability ([14]; first compound 0.253 µM): 0.386 | relative viability ([14]; first compound 0.8 µM): 0.333 | relative viability ([14]; first compound 2.53 µM): 0.491 | relative viability ([14]; first compound 8 µM): 0.492 | relative viability ([15]; first compound 0.08 µM): 0.481 | relative viability ([15]; first compound 0.253 µM): 0.755 | relative viability ([15]; first compound 0.8 µM): 0.452 | relative viability ([15]; first compound 2.53 µM): 0.595 | relative viability ([15]; first compound 8 µM): 0.568 | relative viability ([16]; first compound 0.08 µM): 0.512 | relative viability ([16]; first compound 0.253 µM): 0.553 | relative viability ([16]; first compound 0.8 µM): 0.419 | relative viability ([16]; first compound 2.53 µM): 0.585 | relative viability ([16]; first compound 8 µM): 0.471 | relative viability ([17]; first compound 0.08 µM): 0.533 | relative viability ([17]; first compound 0.253 µM): 0.472 | relative viability ([17]; first compound 0.8 µM): 0.513 | relative viability ([17]; first compound 2.53 µM): 0.426 | relative viability ([17]; first compound 8 µM): 0.509 | relative viability ([18]; first compound 0.08 µM): 0.308 | relative viability ([18]; first compound 0.253 µM): 0.354 | relative viability ([18]; first compound 0.8 µM): 0.306 | relative viability ([18]; first compound 2.53 µM): 0.273 | relative viability ([18]; first compound 8 µM): 0.374 | relative viability ([19]; first compound 0.08 µM): 0.341 | relative viability ([19]; first compound 0.253 µM): 0.499 | relative viability ([19]; first compound 0.8 µM): 0.365 | relative viability ([19]; first compound 8 µM): 0.603 | relative viability ([20]; first compound 0.08 µM): 0.48 | relative viability ([20]; first compound 0.253 µM): 0.977 | relative viability ([20]; first compound 0.8 µM): 0.755 | relative viability ([20]; first compound 2.53 µM): 0.748 | relative viability ([20]; first compound 8 µM): 0.668 | relative viability ([21]; first compound 0.08 µM): 0.815 | relative viability ([21]; first compound 0.253 µM): 1.09 | relative viability ([21]; first compound 0.8 µM): 0.992 | relative viability ([21]; first compound 2.53 µM): 0.752 | relative viability ([21]; first compound 8 µM): 1

— the supplement of paper PMC10307832
